Reference: article PMC3526713 (Journal of natural products, 2006)

What was measured:
[1] = biological target: horse serum butyrylcholinesterase (BChE) (Equus caballus, UniProt P81908)
[2] = biological target: Electric eel AChE (Electrophorus electricus, UniProt O42275)
Electric eel AChE, sequence (O42275 24-633): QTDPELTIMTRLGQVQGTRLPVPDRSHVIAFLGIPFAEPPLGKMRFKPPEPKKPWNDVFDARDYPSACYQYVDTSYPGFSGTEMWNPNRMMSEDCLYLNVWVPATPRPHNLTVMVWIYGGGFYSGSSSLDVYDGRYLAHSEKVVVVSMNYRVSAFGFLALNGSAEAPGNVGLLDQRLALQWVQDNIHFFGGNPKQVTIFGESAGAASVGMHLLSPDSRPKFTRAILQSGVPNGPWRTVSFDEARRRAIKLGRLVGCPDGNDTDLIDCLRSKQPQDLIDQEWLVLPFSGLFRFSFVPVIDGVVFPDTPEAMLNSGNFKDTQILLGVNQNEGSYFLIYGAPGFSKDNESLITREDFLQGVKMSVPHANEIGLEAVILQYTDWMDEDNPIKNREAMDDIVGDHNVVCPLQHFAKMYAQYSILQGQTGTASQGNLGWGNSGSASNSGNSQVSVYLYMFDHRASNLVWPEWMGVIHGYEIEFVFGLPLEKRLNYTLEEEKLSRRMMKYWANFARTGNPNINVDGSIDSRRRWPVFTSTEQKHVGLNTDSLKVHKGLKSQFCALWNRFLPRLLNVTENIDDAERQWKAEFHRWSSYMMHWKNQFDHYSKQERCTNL

horse serum butyrylcholinesterase (BChE), sequence (P81908 whole entry): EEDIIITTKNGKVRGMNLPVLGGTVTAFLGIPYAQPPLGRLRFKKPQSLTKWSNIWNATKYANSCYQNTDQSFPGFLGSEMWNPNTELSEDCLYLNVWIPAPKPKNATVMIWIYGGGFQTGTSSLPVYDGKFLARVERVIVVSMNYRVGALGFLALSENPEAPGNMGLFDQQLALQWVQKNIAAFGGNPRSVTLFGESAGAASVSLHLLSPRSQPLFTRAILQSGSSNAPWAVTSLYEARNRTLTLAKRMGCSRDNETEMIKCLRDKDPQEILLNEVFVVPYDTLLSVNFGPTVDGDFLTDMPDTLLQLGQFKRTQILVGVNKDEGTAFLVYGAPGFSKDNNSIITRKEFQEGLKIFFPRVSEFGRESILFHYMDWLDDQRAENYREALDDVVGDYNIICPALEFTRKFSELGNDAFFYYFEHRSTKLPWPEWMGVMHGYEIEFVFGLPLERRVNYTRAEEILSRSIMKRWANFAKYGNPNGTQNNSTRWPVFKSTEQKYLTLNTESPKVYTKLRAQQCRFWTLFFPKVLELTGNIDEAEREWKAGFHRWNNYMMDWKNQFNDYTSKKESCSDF

| Compound | Effect on BChE [1] | Effect on AChE [2] |
| --- | --- | --- |
| COc1ccc2c(=O)oc3c(OC)cc(CCN(C)C)c4c(=O)oc1c2c34 [Compound 1, 1-(2-dimethylaminoethyl)-3,8-dimethoxychromeno[5,4,3-cde]chromene-5,10-dione] | no effect on BChE |  |
| COc1c(O)cc2c3c1-c1ccccc1C[C@H]3NCC2 [Compound 2, 1-methoxy-5,6,6a,7-tetrahydro-4H-dibenzo[de,g]quinolin-2-ol (6aR)] | effects on neither AChE nor BChE | effects on neither AChE nor BChE |
